# Results from publication PMC8352984, “Estrogen mediates sex differences in preoptic neuropeptide and pituitary hormone production in medaka” (Communications Biology, 2021).
# Experiments:
# Type in all cases: cell-based, medaka (Oryzias latipes)
# [1] = test system: pro-opiomelanocortin (pomc) gene expression; test: Ex vivo pituitary organ culture, real-time PCR of pomc;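 as to pomc expression (Fig. 8, pomc): relative expression with female control samples set to 1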
# Source text: (§1) Fig. 8 Pacap and Vip have pleiotropic effects on the expression of anterior pituitary hormones. The effects of Pacap and Vip on gene expression levels of follicle-stimulating hormone β subunit (fshb), luteinizing hormone β subunit (lhb), thyroid-stimulating hormone β subunit (tshb), growth hormone (gh), somatolactin (sl), prolactin (prl), and pro-opiomelanocortin (pomc) were investigated by using male and female pituitaries cultured ex vivo (n = 6 per group, except male pituitary supplemented with Vip, where n = 5). Data were expressed as means with error bars representing standard error of the mean. Statistical differences were assessed by Dunnett’s post-hoc test. *p < 0.05; **p < 0.01; ***p < 0.001.
# (§2) The pituitaries from five male or female fish were pooled for each sample and cultured ex vivo in Leibovitz’s L-15 medium supplemented with 5% charcoal-stripped fetal bovine serum as described elsewhere. The medium was further supplemented with 10^−5 M medaka Pacap or Vip, or vehicle alone. After 24 h of culture at 25 °C, the pituitaries were processed for total RNA extraction and cDNA synthesis by using the RNeasy Plus Micro Kit (Qiagen) and SuperScript VILO cDNA Synthesis Kit (Thermo Fisher Scientific), respectively. Real-time PCR was performed on the LightCycler 480 System II using LightCycler 480 SYBR Green I Master (Roche Diagnostics). The cycle conditions were: 95 °C for 5 min followed by 45 cycles of 95 °C for 10 sec, 60 °C for 10 sec and 72 °C for 10 sec. Melting curve analysis was performed as described above. Data were normalized to the geometric mean of three reference genes, actb, gapdh (encoding glyceraldehyde-3-phosphate dehydrogenase; National BioResource Project (NBRP) Medaka clone ID olbrno9_f15) and rpl13 (encoding ribosomal protein L13; NBRP Medaka clone ID olovano51_b24), according to Vandesompele et al.[63]. The primers used for real-time PCR are listed in Supplementary Table 3.
# [2] = test system: prolactin (prl) gene expression; test: Ex vivo pituitary organ culture, real-time PCR of prl; settings: for prl expression (in words): 10^-5 M, 24 h, 25 °C, vs vehicle
# Source text: as §1, §2
# medaka Vipr2b = test: Receptor activation assay, cAMP-responsive luciferase in COS-7 cells
# Source text: (§3) The number at each node indicates bootstrap values for 1000 replicates. Scale bar represents 0.1 substitutions per site. SCTR, secretin receptor. For species names and GenBank accession numbers, see Supplementary Table 2. b Ability of Pacap and Vip to activate medaka Pacap/Vip receptors. […] Representative sections of pituitary at different levels along the anterior–posterior axis are shown. Arrowheads indicate expression signals. […] Scale bars represent 50 μm. f Identity of the pituitary cells expressing each Pacap/Vip receptor. The spatial expression pattern of each receptor was compared with that of each pituitary hormone gene in the RPD and PI. Left and middle panels show images of the expression of the indicated receptor (adcyap1r1a, adcyap1r1b, or vipr2b; green) and pituitary hormone gene (sl, prl, or pomc; magenta) in the same sections; right panels show the merged images with nuclear counterstaining (blue). […] Scale bars represent 20 μm. Quantitative data were expressed as means with error bars representing standard error of the mean. […] PI pars intermedia, PPD proximal pars distalis, RPD rostral pars distalis.
# (§4) Receptor activation assay was performed essentially as described previously. Medaka Pacap (38 amino acids) and Vip (28 amino acids) polypeptides with amidated C termini were synthesized by Scrum (Tokyo, Japan). cDNA fragments encoding the full-length Adcyap1r1a (GenBank accession number XM_023965124), Adcyap1r1b (XM_011474272), Vipr1a (XM_023950180), Vipr1b (XM_004079106), Vipr2a (XM_023950048) and Vipr2b (XM_023965399) were PCR-amplified and subcloned into the expression vector pcDNA3.1/V5-His-TOPO (Thermo Fisher Scientific). Each of the resulting receptor expression constructs was transiently transfected into COS-7 cells (obtained from and authenticated by Riken BRC Cell Bank), together with the cAMP-responsive luciferase reporter vector pGL4.29 (Promega) and the internal control vector pGL4.74 (Promega) at a ratio of 11:18:1 for 6 h by using Lipofectamine LTX and Plus reagent (Thermo Fisher Scientific). Forty-two hours after transfection, cells were stimulated with Pacap or Vip at doses of 0, 10^−11, 10^−10, 10^−9, 10^−8, 10^−7, 10^−6 and 10^−5 M for 6 h. After cell lysis, luciferase activity was measured by using the Dual-Luciferase Reporter Assay System (Promega). Each assay was performed in triplicate and repeated three times independently.
# medaka Adcyap1r1b = test: as above
# Source text: as §3, §4
# medaka Vipr1b = test: as above
# Source text: as §3, §4
# medaka Vipr1a = test: as above
# Source text: as §3, §4
# medaka Vipr2a = test: as above
# Source text: as §3, §4
# medaka Adcyap1r1a = test: as above
# Source text: as §3, §4
# [3] = test system: growth hormone (gh) gene expression; test: Ex vivo pituitary organ culture, real-time PCR of gh; settings: for gh expression (in words): 10^-5 M, 24 h, 25 °C, vs vehicle
# Source text: as §1, §2
# [4] = COS-7 cells, 6 h stimulation, 10^-11 to 10^-5 M, luciferase, triplicate, repeated three times, read-out: half-maximal effective concentration (EC50)
substance,measurement,setting,value
Pituitary adenylate cyclase-activating polypeptide [Pacap],"pomc expression (Fig. 8, pomc)","[1]; female, replicate 1",1.650
same,"pomc expression (Fig. 8, pomc)","[1]; female, replicate 2",0.962
same,"pomc expression (Fig. 8, pomc)","[1]; female, replicate 3",1.174
same,"pomc expression (Fig. 8, pomc)","[1]; female, replicate 4",1.174
same,"pomc expression (Fig. 8, pomc)","[1]; female, replicate 5",1.328
same,"pomc expression (Fig. 8, pomc)","[1]; female, replicate 6",1.116
same,pomc expression (in words),"[1]; male pituitaries, 10^-5 M, 24 h, 25 °C, vs vehicle",reduced
same,"pomc expression (Fig. 8, pomc)","[1]; male, replicate 1",5.882
same,"pomc expression (Fig. 8, pomc)","[1]; male, replicate 2",3.434
same,"pomc expression (Fig. 8, pomc)","[1]; male, replicate 3",4.022
same,"pomc expression (Fig. 8, pomc)","[1]; male, replicate 4",3.555
same,"pomc expression (Fig. 8, pomc)","[1]; male, replicate 5",1.951
same,"pomc expression (Fig. 8, pomc)","[1]; male, replicate 6",4.484
same,prl expression (in words),[2]; female pituitaries,substantially increased
same,"prl expression (Fig. 8, prl)","[2]; female, replicate 1",3.510
same,"prl expression (Fig. 8, prl)","[2]; female, replicate 2",4.473
same,"prl expression (Fig. 8, prl)","[2]; female, replicate 3",4.149
same,"prl expression (Fig. 8, prl)","[2]; female, replicate 4",4.897
same,"prl expression (Fig. 8, prl)","[2]; female, replicate 5",3.291
same,"prl expression (Fig. 8, prl)","[2]; female, replicate 6",4.279
same,prl expression (in words),[2]; male pituitaries,substantially increased
same,"prl expression (Fig. 8, prl)","[2]; male, replicate 1",1.555
same,"prl expression (Fig. 8, prl)","[2]; male, replicate 2",3.928
same,"prl expression (Fig. 8, prl)","[2]; male, replicate 3",2.640
same,"prl expression (Fig. 8, prl)","[2]; male, replicate 4",1.612
same,"prl expression (Fig. 8, prl)","[2]; male, replicate 5",3.371
same,"prl expression (Fig. 8, prl)","[2]; male, replicate 6",6.401
same,potency of Pacap and Vip compared (in words),medaka Vipr2b,fairly similar potencies
same,"receptor activation, increase in intracellular cAMP levels (in words)","medaka Vipr2b; COS-7 cells, 6 h",dose-dependently activated all six receptors
same,EC50,medaka Vipr2b; [4],2780 nM
same,"receptor activation, increase in intracellular cAMP levels (in words)","medaka Adcyap1r1b; COS-7 cells, 6 h",dose-dependently activated all six receptors
same,EC50,medaka Adcyap1r1b; [4],0.116 nM
same,greater potency of Pacap as compared with Vip,medaka Adcyap1r1b; ratio of EC50,over 100 fold
same,"receptor activation, increase in intracellular cAMP levels (in words)","medaka Vipr1b; COS-7 cells, 6 h",dose-dependently activated all six receptors
same,EC50,medaka Vipr1b; [4],14.8 nM
same,Pacap less potent as compared with Vip,"medaka Vipr1b; ratio of EC50, Pacap is the weaker",approximately 20 fold
same,potency of Pacap and Vip compared (in words),medaka Vipr1a,fairly similar potencies
same,"receptor activation, increase in intracellular cAMP levels (in words)","medaka Vipr1a; COS-7 cells, 6 h",dose-dependently activated all six receptors
same,EC50,medaka Vipr1a; [4],0.851 nM
same,potency of Pacap and Vip compared (in words),medaka Vipr2a,fairly similar potencies
same,"receptor activation, increase in intracellular cAMP levels (in words)","medaka Vipr2a; COS-7 cells, 6 h",dose-dependently activated all six receptors
same,EC50,medaka Vipr2a; [4],3560 nM
same,"receptor activation, increase in intracellular cAMP levels (in words)","medaka Adcyap1r1a; COS-7 cells, 6 h",dose-dependently activated all six receptors
same,EC50,medaka Adcyap1r1a; [4],0.245 nM
same,greater potency of Pacap as compared with Vip,medaka Adcyap1r1a; ratio of EC50,over 100 fold
same,gh expression (in words),[3]; female pituitaries,no significant effects
same,"gh expression (Fig. 8, gh)","[3]; female, replicate 1",0.960
same,"gh expression (Fig. 8, gh)","[3]; female, replicate 2",0.795
same,"gh expression (Fig. 8, gh)","[3]; female, replicate 3",0.779
same,"gh expression (Fig. 8, gh)","[3]; female, replicate 4",0.968
same,"gh expression (Fig. 8, gh)","[3]; female, replicate 5",0.957
same,"gh expression (Fig. 8, gh)","[3]; female, replicate 6",1.344
same,gh expression (in words),[3]; male pituitaries,no significant effects
same,"gh expression (Fig. 8, gh)","[3]; male, replicate 1",0.248
same,"gh expression (Fig. 8, gh)","[3]; male, replicate 2",0.325
same,"gh expression (Fig. 8, gh)","[3]; male, replicate 3",0.488
same,"gh expression (Fig. 8, gh)","[3]; male, replicate 4",0.330
same,"gh expression (Fig. 8, gh)","[3]; male, replicate 5",0.376
same,"gh expression (Fig. 8, gh)","[3]; male, replicate 6",0.724
